Biological target: T1, rabbit muscle aldolase (Oryctolagus cuniculus, UniProt P00883)
T1 construct: gene ALDOA
T1 sequence (P00883 2-364): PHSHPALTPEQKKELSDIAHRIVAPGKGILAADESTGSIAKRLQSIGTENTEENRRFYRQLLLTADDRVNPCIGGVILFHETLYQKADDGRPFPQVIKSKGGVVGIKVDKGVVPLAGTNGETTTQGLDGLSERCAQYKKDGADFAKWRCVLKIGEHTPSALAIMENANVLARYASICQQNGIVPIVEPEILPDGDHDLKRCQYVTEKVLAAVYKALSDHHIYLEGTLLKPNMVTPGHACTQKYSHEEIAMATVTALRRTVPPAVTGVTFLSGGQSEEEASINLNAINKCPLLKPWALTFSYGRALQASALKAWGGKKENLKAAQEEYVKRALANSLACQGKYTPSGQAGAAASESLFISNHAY
Test: coupled NADH assay (alpha-GDH/TPI), […] nm
Assay type: biochemical
Settings: 2 mM F16P; pH 7.3; 25 °C; no TRAP peptide

O=P(O)(O)OC[C@H]1OC(O)(COP(=O)(O)O)[C@@H](O)[C@@H]1O (stereo partly shown) [fructose 1,6-bisphosphate]
coupled NADH assay (alpha-GDH/TPI), 340 nm: The assay was performed as described previously, however in the absence of TRAP-peptide
